Four compounds from patent publication US11241374B2, “Compositions and methods for treating skin conditions using light and glucosamine hydrochloride” (Johnson & Johnson Consumer Inc., priority 2018, dated 2022) can be followed below.

In this assay the test system is Human dermal fibroblasts. Description: Hyaluronic acid (HA) secretion by human dermal fibroblasts, Hyaluronan ELISA of culture media. Type of assay: cell-based. The note with it: for Synergy of active with red and/or near infrared light in hyaluronic acid production: combination of active and light versus light alone; for Fold Change versus treatment with light alone: net HA. On the procedure:
Human dermal fibroblasts are maintained in flask in growth medium consisting of Dulbeccos' Modified Eagle Medium (DMEM) plus 10% fetal bovine serum, 50 units/ml penicillin and 50 μg/ml streptomycin. Cells are seeded at 10,000 cells per well in a 96 well plate in phenol-red-free Dulbeccos' Modified Eagle Medium (DMEM) plus 2% fetal bovine serum, 50 units/ml penicillin and 50 μg/ml streptomycin for 24 hours before the treatments. Glucosamine HCl or other actives were dissolved in 1×PBS at 10% stock and added into the medium at various concentrations for 48 hours. Culture media is collected at 48 hours post-treatment, and measured for HA (Hyaluronic acid) secretion using Hyaluronan ELISA kit (Echelon, cat. #K-1200) following the manufacturer protocol. To assess activity, the colorimetric chance is measured at 405 nm. The net HA secretion of each tested treatment is calculated by the amount of the HA secretion from each respective individual treatment minus the amount of the HA secretion from the untreated treatment. Then, the fold increase provided by the combination of the treatments by light+active is calculated as the fold change in net HA secreted from the application of the combined light plus active treatment divided by the net HA secreted from the treatment by light alone. […]
(In an ELISA, binding on a coated surface is turned into a signal by an enzyme label.)

Where [1] appears, read: 0.02% active alone in cell media, no light, 48 hours.
[2] abbreviates: Red (633 nm) + NIR (830 nm) light 0.3 J/cm^2 each + 0.02% active.
The mark [3] stands for this setting: Red + NIR light 0.3 J/cm^2 each + 0.02% active.
Setting [4] is: Red + NIR light 0.3 J/cm^2 each + 0.2% active.
Setting [5] is: Red + NIR light 3 J/cm^2 each + 0.02% active.
Where [6] appears, read: Red + NIR light 3 J/cm^2 each + 0.2% active.

Entries after “also recorded” stand apart in the source; their conditions may differ.

Regarding `CC(=O)N[C@H]1C(O)O[C@H](CO)[C@@H](O)[C@@H]1O` (some centres unmarked) [N-acetyl Glucosamine, N-acetyl glucosamine, reference compound], the “Synergy of active with red and/or near infrared light in hyaluronic acid production” value (“Synergy of active” below) is listed as “No synergy was observed; also recorded: not observed”. Under setting [1], the HA concentrations worked out at 735 ng/mL. Under “0.02% active alone, no light”, the “Change in HA concentration over Untreated” value (“Change in HA concentration” below) is -125 ng/mL. The HA concentrations under setting [2] is 1878 ng/mL. For the same compound, under setting [3], the “Change in HA concentration” value came out at 1018 ng/mL and the “Fold Change versus treatment with light alone” value (from here on “Fold Change versus treatment”) was 1.1.
Regarding `Cl.N[C@H]1C(O)O[C@H](CO)[C@@H](O)[C@@H]1O` (some centres unmarked) [Glucosamine HCl, glucosamine hydrochloride], the HA concentrations amounted to 543 ng/mL under setting [1]; 999 ng/mL (0.2% active alone in cell media, no light, 48 hours); 2489 ng/mL under setting [2]; 2260 ng/mL (Red (633 nm) + NIR (830 nm) light 0.3 J/cm^2 each + 0.2% active); 4379 ng/mL (Red (633 nm) + NIR (830 nm) light 3 J/cm^2 each + 0.02% active); 3873 ng/mL (Red (633 nm) + NIR (830 nm) light 3 J/cm^2 each + 0.2% active). In addition, the “Change in HA concentration” value is -8 ng/mL (0.02% active alone, no light); “+448 ng/ml” (0.2% active alone, no light); “+1938 ng/ml” under setting [3]; “+1709 ng/ml” under setting [4]; “+3828 ng/ml” under setting [5]; “+3322 ng/ml” under setting [6]. For the same compound, the “Synergy of active” value is on record as “synergistically increased the hyaluronic acid secretion” (listed as glucosamine HCl, hydrochloride) and “synergistically increases hyaluronic acid production” (listed as glucosamine hydrochloride, hydrochloride). Further, the “Fold Change versus treatment” value is 2.25 under setting [3], 1.98 under setting [4], 2.99 under setting [5] and 2.60 under setting [6].
As for `N[C@H]1C(O)O[C@H](CO)[C@@H](O)[C@@H]1O` (some centres unmarked) [glucosamine], the “Synergy of active” value is listed as “not observed”.
Regarding `N[C@H]1C(O)O[C@H](CO)[C@@H](O)[C@@H]1O.O=P(O)(O)O` (some centres unmarked) [Glucosamine phosphate, reference compound], the HA concentrations under setting [1] turned out to be 689 ng/mL and the HA concentrations under setting [2] was 1037 ng/mL. Moreover, the “Change in HA concentration” value was -51 ng/mL (0.02% active alone, no light) and 297 ng/mL under setting [3]. Moreover, the “Synergy of active” value by setting is: (listed as glucosamine phosphate, phosphate) “not observed”; (phosphate) “No synergy was observed”. The “Fold Change versus treatment” value under setting [3] was determined as 0.36.
